Reference: ChEMBL document CHEMBL3085750, “Discovery of 2-methylpyridine-based biaryl amides as γ-secretase modulators for the treatment of Alzheimer's disease” (Bioorg Med Chem Lett, 2013)

Tests used:
Plasma [1] = assay: Unbound plasma concentration in Sprague-Dawley rat; type: ADME, cell-free
Rattus norvegicus [2] = assay: Reduction of amyloid beta-42 level in Sprague-Dawley rat CSF at 3 mg/kg after 4 hrs by immunoassay relative to control; type: functional; parameters: scale not given: the % may be the effect or the level left
Rattus norvegicus [3] = assay: Toxicity in Sprague-Dawley rat assessed as presence of mixed inflammatory infiltrate with mild villus blunting and fusion in duodenum at 1 to 3 mg/kg after 4 days by light microscopic analysis; type: organism-based; parameters: dose 1-3 mg/kg; settings: in vivo, other, 96 h
Plasma [4] = assay: Unbound plasma concentration in Sprague-Dawley rat at 1 mg/kg; type: ADME, organism-based; parameters: dose 1 mg/kg; settings: in vivo
Rattus norvegicus [5] = assay: Toxicity in Sprague-Dawley rat assessed as thymic cortical lymphoid depletion at 1 to 3 mg/kg after 4 days by light microscopic analysis; type: organism-based; parameters: dose 1-3 mg/kg; settings: in vivo, 96 h
[6] = AUC (0 to 24 hrs) in Sprague-Dawley rat at 3 mg/kg at day 1; type: ADME, organism-based; parameters: time < 24 hr, dose 3 mg/kg; settings: plasma
[7] = Plasma protein binding in Sprague-Dawley rat; type: ADME, cell-free; settings: read-out: PPB (converted)
Rattus norvegicus [8] = assay: Toxicity in Sprague-Dawley rat assessed as increased goblet cell numbers in colon at 1 to 3 mg/kg after 4 days by light microscopic analysis; type: organism-based; parameters: dose 1-3 mg/kg; settings: in vivo, 96 h
Rattus norvegicus [9] = assay: Toxicity in Sprague-Dawley rat assessed as increase in neutrophils and monocytes in peripheral blood at 1 to 3 mg/kg after 4 days by light microscopic analysis; type: organism-based; parameters: dose 1-3 mg/kg; settings: in vivo, 96 h
Rattus norvegicus [10] = assay: Toxicity in Sprague-Dawley rat assessed as marginal zone lymphoid depletion in spleen at 1 to 3 mg/kg after 4 days by light microscopic analysis; type: organism-based; parameters: dose 1-3 mg/kg; settings: in vivo, 96 h
Rattus norvegicus [11] = assay: Reduction of amyloid beta-42 level in Sprague-Dawley rat CSF at 1 mg/kg after 4 hrs by immunoassay relative to control; type: functional; parameters: scale not given: the % may be the effect or the level left
Rattus norvegicus [12] = assay: Reduction of amyloid beta-42 level in Sprague-Dawley rat CSF at 3 mg/kg after 24 hrs by immunoassay relative to control; type: functional; parameters: scale not given: the % may be the effect or the level left
Rattus norvegicus [13] = assay: Toxicity in Sprague-Dawley rat assessed as thickening of hypertrophic zone of tibial physis at 1 to 3 mg/kg after 4 days by light microscopic analysis; type: organism-based; parameters: dose 1-3 mg/kg; settings: in vivo, 96 h
Rattus norvegicus [14] = assay: Toxicity in Sprague-Dawley rat assessed as increased goblet cell numbers in duodenum at 1 to 3 mg/kg after 4 days by light microscopic analysis; type: organism-based; parameters: dose 1-3 mg/kg; settings: in vivo, other, 96 h
[15] = AUC (0 to 24 hrs) in Sprague-Dawley rat at 3 mg/kg at day 4; type: ADME, organism-based; parameters: time < 24 hr, dose 3 mg/kg; settings: plasma
[16] = Metabolic stability in human liver microsomes at 1 uM after 30 mins; type: ADME; settings: read-out: Stability
Gamma-secretase [17] = assay: Modulation of gamma-secretase in HEK293 cells expressing guinea pig Swedish mutant SFV-APP695sw assessed as inhibition of amyloid beta-42 production after 16 to 18 hrs by HTRF assay; type: cell-based, Homo sapiens
Cytochrome P450 2D6 = Cytochrome P450 2D6 (Homo sapiens, UniProt P10635); assay: Inhibition of CYP2D6 (unknown origin) after 10 mins; type: ADME
Sequence of Cytochrome P450 2D6 (P10635 whole entry): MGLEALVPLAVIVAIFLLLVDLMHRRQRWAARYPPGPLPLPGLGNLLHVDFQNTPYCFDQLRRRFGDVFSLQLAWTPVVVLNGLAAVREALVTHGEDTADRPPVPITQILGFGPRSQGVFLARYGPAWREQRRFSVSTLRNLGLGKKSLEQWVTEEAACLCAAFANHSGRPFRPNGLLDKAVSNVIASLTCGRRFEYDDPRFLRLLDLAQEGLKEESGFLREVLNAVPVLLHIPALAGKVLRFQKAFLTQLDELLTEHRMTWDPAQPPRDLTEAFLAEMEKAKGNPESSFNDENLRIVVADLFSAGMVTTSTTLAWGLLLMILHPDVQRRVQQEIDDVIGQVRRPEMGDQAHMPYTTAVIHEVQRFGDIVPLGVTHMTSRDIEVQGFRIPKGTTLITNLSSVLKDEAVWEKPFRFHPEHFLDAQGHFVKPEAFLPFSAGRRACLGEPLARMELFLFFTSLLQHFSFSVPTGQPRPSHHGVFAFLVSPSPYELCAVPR

[18] = Metabolic stability in rat liver microsomes at 1 uM after 30 mins; type: ADME; settings: read-out: Stability
Cytochrome P450 3A4 = Cytochrome P450 3A4 (Homo sapiens, UniProt P08684); assay: Inhibition of CYP3A4 (unknown origin) after 5 mins; type: ADME
Sequence of Cytochrome P450 3A4 (P08684 whole entry): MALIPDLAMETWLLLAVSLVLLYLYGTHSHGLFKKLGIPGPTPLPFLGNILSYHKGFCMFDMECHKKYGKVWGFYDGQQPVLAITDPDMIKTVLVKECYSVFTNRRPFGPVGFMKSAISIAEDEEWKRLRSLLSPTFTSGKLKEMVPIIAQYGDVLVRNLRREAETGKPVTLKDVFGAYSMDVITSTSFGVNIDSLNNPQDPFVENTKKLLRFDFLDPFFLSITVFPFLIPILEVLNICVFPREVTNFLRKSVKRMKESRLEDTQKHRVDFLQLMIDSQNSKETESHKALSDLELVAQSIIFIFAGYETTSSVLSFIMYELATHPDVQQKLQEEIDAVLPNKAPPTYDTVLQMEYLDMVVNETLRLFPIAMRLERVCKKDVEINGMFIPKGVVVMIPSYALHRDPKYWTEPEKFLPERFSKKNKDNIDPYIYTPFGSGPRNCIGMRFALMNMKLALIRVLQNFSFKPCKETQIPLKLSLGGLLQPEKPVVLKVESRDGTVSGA

Gamma-secretase [19] = assay: Modulation of gamma-secretase in HEK293 cells expressing guinea pig Swedish mutant SFV-APP695sw assessed as inhibition of amyloid beta-40 production after 16 to 18 hrs by HTRF assay; type: cell-based, Homo sapiens
[20] = target: Gamma-secretase (Homo sapiens) (UniProt Q96BI3+Q9NZ42+Q8WW43+P49768+Q92542+P49810); assay: Modulation of gamma-secretase in HEK293 cells expressing guinea pig Swedish mutant SFV-APP695sw assessed as inhibition of amyloid beta-42 production at 10 uM after 16 to 18 hrs by HTRF assay relative to control; type: cell-based
[21] = Ratio of drug level in brain to plasma in mouse at 10 mg/kg, po after 2 hrs; type: ADME, organism-based; parameters: dose 10 mg/kg, route oral; settings: read-out: BPR

Row | microsomal CLint at 1 µM [16] | IC50 (Gamma-secretase [17]) | IC50 (Cytochrome P450 2D6) | microsomal CLint at 1 µM [18] | IC50 (Cytochrome P450 3A4) | Compound | further results
1 |  |  |  |  |  | C[C@H](NC(=O)[C@@H](O)c1cc(F)cc(F)c1)C(=O)N[C@@H]1C(=O)N(C)c2ccccc2-c2ccccc21 | Cp(f) (Plasma [1]): 1.2 nM; Activity (Rattus norvegicus [2]): 66%; Activity (Rattus norvegicus [3]): Toxic; Cp(f) (Plasma [4]): 0.4 nM; Activity (Rattus norvegicus [5]): Toxic; AUC(0-t) at 24 h [6]: 386 ng·h/mL; fraction unbound [7]: 0.053; Activity (Rattus norvegicus [8]): Toxic; Activity (Rattus norvegicus [9]): Toxic; Activity (Rattus norvegicus [10]): Toxic; Activity (Rattus norvegicus [11]): 33%; Activity (Rattus norvegicus [12]): 37%; Activity (Rattus norvegicus [13]): Toxic; Activity (Rattus norvegicus [14]): Toxic; AUC(0-t) at 24 h [15]: 144 ng·h/mL
2 | 399 µL/min/mg | 0.28 µM | 2 µM | 290 µL/min/mg | > 27 µM | Cc1cc(-c2ccc(NS(=O)(=O)c3cc(C(F)(F)F)cc(C(F)(F)F)c3)cc2)ccn1 | 
3 | 45 µL/min/mg | > 10 µM | 7.2 µM | > 399 µL/min/mg | 3.5 µM | O=S(=O)(Nc1ccc(-c2cncnc2)cc1)c1cc(Cl)cc(Cl)c1 | 
4 | > 399 µL/min/mg | > 10 µM | > 27 µM | > 399 µL/min/mg | 16.2 µM | O=S(=O)(Nc1ccc(-c2ncccn2)cc1)c1cc(Cl)cc(Cl)c1 | 
5 | 22 µL/min/mg | 9.4 µM | > 27 µM | 113 µL/min/mg | > 27 µM | Cc1nccn1-c1ccc(NS(=O)(=O)c2cc(Cl)cc(Cl)c2)cc1 | 
6 |  | 0.13 µM |  |  |  | CCN(CC)c1ccc(C)c(Nc2nc(-c3ccc(-n4cnc(C)c4)cc3)cs2)c1 | IC50 (Gamma-secretase [19]): 0.56 µM
7 | 106 µL/min/mg | > 10 µM | > 27 µM | 14 µL/min/mg | > 27 µM | Cc1cc(-c2ccc(NC(=O)c3cc(C(F)(F)F)cc(C(F)(F)F)c3)cc2)ccn1 | inhibition [20]: 58%
8 | 371 µL/min/mg | 0.21 µM | 0.7 µM | 324 µL/min/mg | 12.2 µM | CCc1cc(-c2ccc(NS(=O)(=O)c3cc(C(F)(F)F)cc(C(F)(F)F)c3)cc2)ccn1 | 
9 | 35 µL/min/mg | 2.75 µM | 0.2 µM | 85 µL/min/mg | 0.6 µM | O=S(=O)(Nc1ccc(-c2ccncc2)cc1)c1cc(Cl)cc(Cl)c1 | Kp at 2 h [21]: 0.09
